Test results published in patent US20240041042A1, “1-(PYRIDYL)-5-AZINYLPYRAZOLE DERIVATIVES, AND THEIR USE FOR CONTROL OF UNDESIRED PLANT GROWTH” (Bayer Aktiengesellschaft, priority 2020, published 2024).

Legend:
Assay type in all cases: in vivo
[1] = system: Setaria viridis (SETVI); test: Post-emergence herbicidal action against SETVI
Procedure, shortened: (§1)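 Rates were 320 g/ha or below, applied as aqueous WP/EC spray with 0.5% additive (600 l/ha) onto one-leaf-stage plants. About 3 weeks later in the greenhouse, damage was scored visually against untreated plants on a 0–100% scale, where 100% means plants died.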

[2] = system: Verconica persica (VERPE); test: Pre-emergence herbicidal action against VERPE
Procedure, shortened: (§2)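 Herbicide applied to soil before seedling emergence, at 600 l/ha spray volume with 0.5% additive and rates up to 320 g/ha. Evaluation: visual percentage effect, about 3 weeks later, greenhouse-grown pots compared with untreated ones.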

[3] = system: Lolium rigidum (LOLRI); test: Pre-emergence herbicidal action against LOLRI
Procedure, shortened: as §2

[4] = system: Polygonum convolvulus (POLCO); test: Pre-emergence herbicidal action against POLCO
Procedure, shortened: as §2

[5] = system: Avena fatua (AVEFA); test: Post-emergence herbicidal action against AVEFA; settings: visual rating about 3 weeks after treatment
Procedure, shortened: as §1

[6] = system: Oryza sativa (ORYSA); settings: crop plant compatibility, 80 g/ha, effect in comparison to untreated controls
Procedure, shortened: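 Visual rating (% effect vs. untreated plants; 100% = plant death) made about 3 weeks after treatment. Plants had been sprayed at one-leaf stage, 2–3 weeks post-sowing, with aqueous WP/EC preparations containing 0.5% additive, 600 l/ha water volume; a, b, c mark dose levels.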

[7] = system: Pharbitis purpurea (PHBPU); test: Pre-emergence herbicidal action against PHBPU
Procedure, shortened: as §2

[8] = system: Amaranthus retroflexus (AMARE); test: Post-emergence herbicidal action against AMARE
Procedure, shortened: as §1

[9] = system: Amaranthus retroflexus (AMARE); test: Pre-emergence herbicidal action against AMARE; settings: visual scoring after about 3 weeks vs untreated controls
Procedure, shortened: as §2

[10] = system: Digitaria sanguinalis (DIGSA); test: Pre-emergence herbicidal action against DIGSA
Procedure, shortened: as §2

[11] = system: Digitaria sanguinalis (DIGSA); test: Post-emergence herbicidal action against DIGSA; settings: visual rating about 3 weeks after treatment
Procedure, shortened: as §1

[12] = system: Echinochloa crus-galli (ECHCG); test: Post-emergence herbicidal action against ECHCG
Procedure, shortened: as §1

[13] = system: Setaria viridis (SETVI); test: Pre-emergence herbicidal action against SETVI
Procedure, shortened: as §2

[14] = system: Matricaria inodora (MATIN); test: Pre-emergence herbicidal action against MATIN
Procedure, shortened: as §2

[15] = system: Verconica persica (VERPE); test: Post-emergence herbicidal action against VERPE
Procedure, shortened: as §1

[16] = system: Viola tricolor (VIOTR); test: Post-emergence herbicidal action against VIOTR
Procedure, shortened: as §1

[17] = system: Abutilon theophrasti (ABUTH); test: Pre-emergence herbicidal action against ABUTH; settings: Dosage column 320 g/ha (title prints 3200 g/ha); scored visually after about 3 weeks; 100% = plants have died
Procedure, shortened: as §2

[18] = system: Viola tricolor (VIOTR); test: Pre-emergence herbicidal action against VIOTR
Procedure, shortened: as §2

[19] = system: Pharbitis purpurea (PHBPU); test: Post-emergence herbicidal action against PHBPU
Procedure, shortened: as §1

[20] = system: Avena fatua (AVEFA); test: Pre-emergence herbicidal action against AVEFA; settings: visual scoring after about 3 weeks vs untreated controls
Procedure, shortened: as §2

[21] = system: Abutilon theophrasti (ABUTH); test: Post-emergence herbicidal action against ABUTH; settings: 320 g/ha, visual rating about 3 weeks after treatment vs untreated controls (100% = plants have died, 0% = like control plants)
Procedure, shortened: as §1

[22] = system: Alopecurus myosuroides (ALOMY); test: Pre-emergence herbicidal action against ALOMY; settings: scored visually after about 3 weeks, 100% = plants have died
Procedure, shortened: as §2

[23] = system: Echinochloa crus-galli (ECHCG); test: Pre-emergence herbicidal action against ECHCG
Procedure, shortened: as §2

[24] = system: Lolium rigidum (LOLRI); test: Post-emergence herbicidal action against LOLRI
Procedure, shortened: as §1

[25] = system: Alopecurus myosuroides (ALOMY); test: Post-emergence herbicidal action against ALOMY; settings: visual rating about 3 weeks after treatment vs untreated controls (100% = plants have died, 0% = like control plants)
Procedure, shortened: as §1

[26] = system: Polygonum convolvulus (POLCO); test: Post-emergence herbicidal action against POLCO; settings: dosage 320 g/ha
Procedure, shortened: as §1

[27] = 80 g/ha, visual scoring after about 3 weeks vs untreated controls

COC(=O)[C@@H](C)COC(=O)COc1nn(-c2ccccn2)c(-c2cncc(F)c2)c1Br [Example I-194]
100%: Pre-emergence action against LOLRI in % ([3]; dosage 320 g/ha) | Pre-emergence action against POLCO in % ([4]; dosage 320 g/ha) | Pre-emergence action against AMARE in % ([9]; 80 g/ha) | Pre-emergence action against AMARE in % ([9]; 320 g/ha) | Pre-emergence action against DIGSA in % ([10]; dosage 320 g/ha) | Pre-emergence action against SETVI in % ([13]; dosage 320 g/ha) | Pre-emergence action against VIOTR in % ([18]; 320 g/ha, Viola tricolor) | Pre-emergence action against ALOMY ([22]; 320 g/ha) | Pre-emergence action against ECHCG in % ([23]; dosage 320 g/ha)
80%: Pre-emergence action against POLCO in % ([4]; dosage 80 g/ha) | Post-emergence action against AMARE in % ([8]; 80 g/ha, visual rating about 3 weeks after treatment vs untreated controls (100% = plants have died, 0% = like control plants)) | Post-emergence action against DIGSA in % ([11]; 80 g/ha) | Post-emergence action against ECHCG in % ([12]; dosage 80 g/ha) | Post-emergence action against ECHCG in % ([12]; dosage 320 g/ha) | Post-emergence action against VERPE in % ([15]; 320 g/ha, VERPE) | Post-emergence action against VIOTR in % ([16]; 80 g/ha) | Post-emergence action against VIOTR in % ([16]; 320 g/ha) | Pre-emergence action against ABUTH [17] | Pre-emergence action against AVEFA in % ([20]; 80 g/ha) | Post-emergence action against ABUTH in % [21] | Pre-emergence action against ALOMY ([22]; 80 g/ha) | Pre-emergence action against ECHCG in % ([23]; dosage 80 g/ha) | Post-emergence action against LOLRI in % ([24]; dosage 80 g/ha)
20%: Post-emergence action against ORYSA in % [6]
90%: Post-emergence action against SETVI in % ([1]; dosage 80 g/ha) | Post-emergence action against SETVI in % ([1]; dosage 320 g/ha) | Pre-emergence action against VERPE in % ([2]; dosage 320 g/ha) | Pre-emergence action against LOLRI in % ([3]; dosage 80 g/ha) | Post-emergence action against AVEFA in % ([5]; 320 g/ha) | Pre-emergence action against PHBPU in % ([7]; dosage 80 g/ha) | Pre-emergence action against PHBPU in % ([7]; dosage 320 g/ha) | Post-emergence action against AMARE in % ([8]; 320 g/ha, visual rating about 3 weeks after treatment) | Pre-emergence action against DIGSA in % [10, 27] | Post-emergence action against DIGSA in % ([11]; 320 g/ha) | Pre-emergence action against SETVI in % ([13]; dosage 80 g/ha) | Pre-emergence action against MATIN in % ([14]; dosage 80 g/ha) | Pre-emergence action against MATIN in % ([14]; dosage 320 g/ha) | Post-emergence action against PHBPU in % ([19]; dosage 80 g/ha) | Post-emergence action against PHBPU in % ([19]; dosage 320 g/ha) | Pre-emergence action against AVEFA in % ([20]; 320 g/ha) | Post-emergence action against LOLRI in % ([24]; dosage 320 g/ha) | Post-emergence action against ALOMY in % ([25]; 80 g/ha) | Post-emergence action against ALOMY in % ([25]; 320 g/ha)

COC(=O)[C@H](C)COC(=O)COc1nn(-c2ccccn2)c(-c2cncc(F)c2)c1Br [Example I-195]
80%: Pre-emergence action against LOLRI in % ([3]; dosage 80 g/ha) | Post-emergence action against ECHCG in % ([12]; dosage 320 g/ha) | Post-emergence action against VERPE in % ([15]; 320 g/ha, VERPE) | Post-emergence action against VERPE in % ([15]; dosage 80 g/ha) | Post-emergence action against VIOTR in % ([16]; 80 g/ha) | Post-emergence action against VIOTR in % ([16]; 320 g/ha) | Pre-emergence action against ABUTH [17] | Pre-emergence action against VIOTR in % ([18]; dosage 80 g/ha) | Pre-emergence action against ALOMY ([22]; 80 g/ha) | Post-emergence action against LOLRI in % ([24]; dosage 320 g/ha) | Post-emergence action against ALOMY in % ([25]; 80 g/ha) | Post-emergence action against POLCO in % [26]
100%: Pre-emergence action against VERPE in % ([2]; dosage 320 g/ha) | Pre-emergence action against LOLRI in % ([3]; dosage 320 g/ha) | Pre-emergence action against POLCO in % ([4]; dosage 320 g/ha) | Pre-emergence action against AMARE in % ([9]; 320 g/ha) | Pre-emergence action against DIGSA in % ([10]; dosage 320 g/ha) | Pre-emergence action against SETVI in % ([13]; dosage 80 g/ha) | Pre-emergence action against SETVI in % ([13]; dosage 320 g/ha) | Pre-emergence action against VIOTR in % ([18]; 320 g/ha, Viola tricolor) | Pre-emergence action against ECHCG in % ([23]; dosage 320 g/ha)
90%: Post-emergence action against SETVI in % ([1]; dosage 80 g/ha) | Post-emergence action against SETVI in % ([1]; dosage 320 g/ha) | Pre-emergence action against POLCO in % ([4]; dosage 80 g/ha) | Post-emergence action against AVEFA in % ([5]; 320 g/ha) | Pre-emergence action against PHBPU in % ([7]; dosage 320 g/ha) | Pre-emergence action against AMARE in % ([9]; 80 g/ha) | Pre-emergence action against DIGSA in % [10, 27] | Post-emergence action against DIGSA in % ([11]; 80 g/ha) | Post-emergence action against DIGSA in % ([11]; 320 g/ha) | Pre-emergence action against MATIN in % ([14]; dosage 80 g/ha) | Pre-emergence action against MATIN in % ([14]; dosage 320 g/ha) | Post-emergence action against PHBPU in % ([19]; dosage 80 g/ha) | Post-emergence action against PHBPU in % ([19]; dosage 320 g/ha) | Pre-emergence action against AVEFA in % ([20]; 320 g/ha) | Post-emergence action against ABUTH in % [21] | Pre-emergence action against ALOMY ([22]; 320 g/ha) | Post-emergence action against ALOMY in % ([25]; 320 g/ha)

C[C@@H](Oc1nn(-c2nc(F)ccc2F)c(-c2ccc(F)nc2)c1C1CC1)C(=O)O [Example I-296]
80%: Post-emergence action against SETVI in % ([1]; dosage 320 g/ha) | Pre-emergence action against POLCO in % ([4]; dosage 80 g/ha) | Post-emergence action against AVEFA in % ([5]; 80 g/ha) | Post-emergence action against AVEFA in % ([5]; 320 g/ha) | Pre-emergence action against AMARE in % ([9]; 80 g/ha) | Post-emergence action against DIGSA in % ([11]; 80 g/ha) | Post-emergence action against ECHCG in % ([12]; dosage 80 g/ha) | Post-emergence action against ECHCG in % ([12]; dosage 320 g/ha) | Pre-emergence action against MATIN in % ([14]; dosage 80 g/ha) | Post-emergence action against VERPE in % ([15]; 320 g/ha, VERPE) | Post-emergence action against VIOTR in % ([16]; 80 g/ha) | Post-emergence action against VIOTR in % ([16]; 320 g/ha) | Pre-emergence action against ABUTH [17] | Post-emergence action against ABUTH in % [21] | Pre-emergence action against ALOMY ([22]; 80 g/ha) | Post-emergence action against LOLRI in % ([24]; dosage 80 g/ha) | Post-emergence action against LOLRI in % ([24]; dosage 320 g/ha) | Post-emergence action against ALOMY in % ([25]; 80 g/ha) | Post-emergence action against POLCO in % [26]
100%: Pre-emergence action against VERPE in % ([2]; dosage 320 g/ha) | Pre-emergence action against LOLRI in % ([3]; dosage 320 g/ha) | Pre-emergence action against DIGSA in % ([10]; dosage 320 g/ha) | Pre-emergence action against SETVI in % ([13]; dosage 320 g/ha) | Pre-emergence action against VIOTR in % ([18]; 320 g/ha, Viola tricolor) | Pre-emergence action against ALOMY ([22]; 320 g/ha) | Pre-emergence action against ECHCG in % ([23]; dosage 320 g/ha)
0%: Post-emergence action against ORYSA in % [6]
90%: Pre-emergence action against VERPE in % ([2]; dosage 80 g/ha) | Pre-emergence action against POLCO in % ([4]; dosage 320 g/ha) | Pre-emergence action against PHBPU in % ([7]; dosage 320 g/ha) | Pre-emergence action against AMARE in % ([9]; 320 g/ha) | Pre-emergence action against DIGSA in % [10, 27] | Post-emergence action against DIGSA in % ([11]; 320 g/ha) | Pre-emergence action against SETVI in % ([13]; dosage 80 g/ha) | Pre-emergence action against MATIN in % ([14]; dosage 320 g/ha) | Pre-emergence action against VIOTR in % ([18]; dosage 80 g/ha) | Post-emergence action against PHBPU in % ([19]; dosage 320 g/ha) | Pre-emergence action against AVEFA in % ([20]; 320 g/ha) | Post-emergence action against ALOMY in % ([25]; 320 g/ha)
